Assay results published in patent publication US20170191032A1, “IDENTIFICATION AND ISOLATION OF NEURAL STEM CELLS AND NEUROSPHERE INITIATING CELLS” (The Board of Regents of the University of Texas System, priority 2014, published 2017).
Values belong to the compound of their own block, whether it stands above or below them.

Tests used:
adult SVZ cells = experiment: Neurosphere formation (clonogenesis) of adult SVZ cells with culture additives; format: cell-based, mouse
Description: Rock inhibitor (Y-27632) and IGF1 increase clonogenesis after sorting. The process of being sorted has a negative effect on neurosphere formation from adult SVZ cells: at the beginning of their experiments the inventors observed a 3-fold loss of activity in sorted live SVZ cells compared to crude unsorted cells. […] The inventors wondered how to sort gently to overcome the fragility of adult SVZ cells.
(§1) The mechanisms underlying these effects are unclear but may involve promotion of cell survival after sorting or repression of BMP signaling (Hsieh et al., 2004). When using both these culture additives, there was little difference between sorted live SVZ cells and an equal number of cells added to culture by pipette in terms of the numbers of neurospheres they made.
After adding 10% CEE to the culture medium, sorted cell-derived primary neurospheres were indistinguishable in size and number from neurospheres cultured from cells pipetted into culture.
(§2) The cell suspension was then filtered through a 45-micron mesh, counted on a hemocytometer, and added to culture or processed for flow cytometry. […] For adherent colony formation, Tg(Ubc-GFP) SVZ cells were co-cultured with 80-90% confluent nontransgenic neonatal SVZ-derived astrocytes isolated and passaged twice prior to the experiment. GFP fluorescence was used to assess colony formation after 12-20 days in culture.

GEPCOT cells [1] = details: 3.0 mM EDTA in staining medium (slight excess over 2.7 mM divalent cations)
Description: In the inventors' experiments, the staining medium the inventors employed contained 3.0 mM EDTA, enough to neutralize 2.7 mM of divalent cations in the staining medium (with a small surplus). […] The inventors pre-diluted 0.5M EDTA (made from Na2H2EDTA, pH 8.0) to 77.7 mM (309 mOsm) before adding it to the staining medium.
SVZ cell preparation. SVZs from adult (8-60 week old) mice were dissected as described (Mirzadeh et al., 2010). SVZs were minced and digested with 300 μl of trypsin solution (Ca and Mg-free HBSS, 10 mM HEPES, 0.5 mM EDTA, 0.25 mg/mL trypsin (EMD Millipore), 10 μg/mL DNase I (Roche), pH 7.6) at 37° C. for 20 minutes. Digestion was quenched with three volumes of staining medium (440 ml Leibovitz L-15 medium, 50 ml water, 5 ml 1M HEPES pH 7.3-7.4, 5 ml 100× Pen-Strep, 20 ml 77.7 mM EDTA pH 8.0 [prepared from Na2H2EDTA], 1 g bovine serum albumin [Sigma A7030]) containing 100 μg/ml trypsin inhibitor (Sigma T6522) and 10 μg/ml DNase I (Roche).

neonatal SVZ cells = experiment: Neurosphere formation of neonatal SVZ cells with culture additive; format: cell-based, mouse; details: 10 μM
Description: as §1

SVZ cells = experiment: TMZ regeneration assay: total and dividing (BrdU) SVZ cells; format: in vivo, mouse
Description: (§3) All data represent mean ±s.d.

NICs = experiment: TMZ regeneration assay: neurosphere-initiating cells (NICs); format: in vivo, mouse
Description: as §3, §2

[2] = Body mass after TMZ treatment; format: in vivo, mouse; details: three days after TMZ, 100 mg/kg/day i.p. for 3 consecutive days
GEPCOT cells [3] = experiment: TMZ regeneration assay: GEPCOT cells per SVZ by flow cytometry; details: for number of unlabeled GEPCOTs per SVZ: Ascl1CreERT2 reporter mice, tamoxifen then TMZ
Description: TMZ regeneration assay. TMZ (temozolomide; Sigma T2577) was dissolved in 25% DMSO/75% 0.9% saline solution at 10 mg/ml by heating briefly to 90-100° C., then shaking and rapidly cooling. Mice were injected at 100 mg/kg/day for three consecutive days then allowed to recover for 3-90 days before analysis. Mice with enlarged spleen or thymus (sometimes present at 90 days after TMZ treatment) were excluded from analysis.
To stain SVZ cells with the combination of markers used to isolate GEPCOT or pre-GEPCOT cells, dissociated SVZ cells were centrifuged (220 g, 4 min, 4° C.) and resuspended in 100 μl staining medium per brain. Then the following antibodies were added: BV421 anti-Ter119 (Biolegend 116233, 1/100), BV421 anti-CD45 (Biolegend 103133, 1/100), APC-eFluor 780 anti-CD24 (eBioscience 47-0242-82, 1/200), 5A5 ascites (anti-PSA-NCAM; Developmental Studies Hybridoma Bank, 1/100), O4 ascites (1/200), anti-PlexinB2 (eBioscience 14-5665-82, 1/100), biotinylated anti-EGFR (R&D Systems BAF1280, 1/200), anti-Glast (Miltenyi Biotec 130-095-822, 1/10), and DAPI (50 μg/ml, 1/100). After adding antibodies, the cells were incubated on ice for 45 minutes, then washed with 2.5 ml fresh staining medium and pelleted (220 g for 4 minutes at 4° C.) and resuspended in secondary antibodies. Typically, the inventors used the following combination: APC anti-mouse IgG2a (Jackson Immunoresearch 115-135-206,1/200), PE anti-hamster IgG (Jackson Immunoresearch 127-115-160, 1/200), PE-Cy7 anti-mouse IgM (eBioscience 25-5790-82, 1/100), BV605-Streptavidin (BD Biosciences 563260, 1/200). However, when analyzing mice expressing tdTomato, the inventors used the following alternative secondary antibodies: PerCP-eFluor 710 anti-mouse IgG (eBioscience 46-4010-82, 1/100), APC anti-hamster IgG (Jackson Immunoresearch 127-135-160, 1/200), PE-Cy7 anti-mouse IgM (eBioscience 25-5790-82, 1/100), and BV605-Streptavidin (BD Biosciences 563260, 1/200). Cells were stained with secondary antibodies on ice for 45 minutes, then washed and pelleted as above, and analyzed on the FACSAria in a volume of 200 μl per brain.

[4] = three days after TMZ (100 mg/kg/day i.p., 3 days)

Compound: IGF1: IGF-1 growth factor (R&D Systems 291-G1) added to culture medium
- clonogenesis after sorting (adult SVZ cells; 20 ng/ml in culture medium, in addition to Y-27632): further improved clonogenesis after sorting

Compound: O=C(O)CN(CCN(CC(=O)O)CC(=O)O)CC(=O)O [EDTA]
- effect on the yield of GEPCOT cells (GEPCOT cells [1]): 2-3 fold

Compound: Y-27632 hydrochloride
- increase in neurosphere formation (adult SVZ cells; 10 μM in culture medium, adult cells after sorting): approximately two-fold
- effect on neurosphere formation (adult SVZ cells; 10 μM, adult SVZ cells pipetted into the culture medium): did not have any effect
- effect on neurosphere formation (neonatal SVZ cells; crude neonatal SVZ cells): did not have any effect
- effect on neurosphere formation (neonatal SVZ cells; sorted neonatal SVZ cells): did not have any effect

- loss of body mass as compared to before TMZ treatment [2]: less than 3%
Compound: Cn1nnc2c(C(N)=O)ncn2c1=O [TMZ, temozolomide]
- number of dividing SVZ cells, recovery as % of normal (SVZ cells; 90 days after TMZ treatment): 50 % of normal
- reduction in the number of dividing SVZ cells, based on BrdU incorporation (SVZ cells; [4]): 80%
- reduction in the total number of cells per SVZ (SVZ cells; [4]): 23%
- NICs recovered, % of normal levels (NICs; 16 days after TMZ treatment): 20 % of normal
- NICs recovered, % of normal (NICs; 90 days after TMZ): 55 % of normal
- NICs remaining relative to saline-treated control mice (NICs; three days after TMZ): 0.7%
- GEPCOTs recovered, % of normal levels (GEPCOT cells [3]; 16 days after TMZ treatment): 32 % of normal
- GEPCOTs recovered, % of normal levels (GEPCOT cells [3]; 90 days after TMZ treatment): 55 % of normal
- number of unlabeled GEPCOTs per SVZ (GEPCOT cells [3]; 3 days after TMZ): 120±50
- number of unlabeled GEPCOTs per SVZ (GEPCOT cells [3]; 35 days after TMZ): 640±210
- GEPCOTs remaining relative to saline-treated control mice (GEPCOT cells [3]; three days after TMZ treatment): 10%
